For the assay, the target named is T1, Human PD-L1/PD-1 (Homo sapiens, UniProt Q9NZQ7).
T1 construct: TVMV protease cleavage site (C); made in house; host or cells: HEK293T cells
The experiment in a line: HTRF Human PD-L1/PD-1 binding assay (PD-1-Ig/PD-L1-His). The following applies: PD-L1-His 10 nM, PD-1-Ig 20 nM; class symbol; read-out: HTRF Human PD-L1/PD-1 Binding Assay IC50 Range. A digest of the protocol:
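Truncated Fc-fused human PD-1 (aa 25-167) at 20 nM and His-tagged PD-L1 (aa 18-239) at 10 nM final are used, with peptides preincubated 15 min with PD-L1. Detection uses europium-cryptate anti-Ig and APC anti-His antibodies; 665/620 nm ratio.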
A general note: TR-FRET usually uses a lanthanide donor and a delayed reading to cut background.

*1 amine or outer side, *2 acyl side, *3 side chain or, on linkers, in order; H or OH if unused. Where a SMILES comes first, the peptide text is derived from it. Bridges are numbered along the chain shown (N, C = ends). [ ]: non-standard residue; d: D form. ξ: configuration not given here. Trp(1-CH2COOH) = N[C@@H](Cc1cn(CC(=O)O)c2ccccc12)C(=O)O; Phe(3,4,5-F3) = N[C@@H](Cc1cc(F)c(F)c(F)c1)C(=O)O; Trp(1-Me) = Cn1cc(C[C@H](N)C(=O)O)c2ccccc21; NMePhe(4-F) = CN[C@@H](Cc1ccc(F)cc1)C(=O)O; NMeW = CN[C@@H](Cc1c[nH]c2ccccc12)C(=O)O; Phe(4-Me) = Cc1ccc(C[C@H](N)C(=O)O)cc1; d(cisHyp) = O=C(O)[C@H]1C[C@@H](O)CN1; NMeY = CN[C@@H](Cc1ccc(O)cc1)C(=O)O; Hyp = O=C(O)[C@@H]1C[C@@H](O)CN1; NMeF = CN[C@@H](Cc1ccccc1)C(=O)O; X1 = O=C([C@H]1COCCN1[*:1])[*:2]; NMeNle = CCCC[C@H](NC)C(=O)O; Pip = O=C(O)[C@@H]1CCCCN1; hSer = N[C@@H](CCO)C(=O)O; NMeA = CN[C@@H](C)C(=O)O; Orn = NCCC[C@H](N)C(=O)O; Dab = NCC[C@H](N)C(=O)O; Dap = NC[C@H](N)C(=O)O; ξC = NC(CS)C(=O)O

T1 sequence (Q9NZQ7 with tags, fused parts or gaps): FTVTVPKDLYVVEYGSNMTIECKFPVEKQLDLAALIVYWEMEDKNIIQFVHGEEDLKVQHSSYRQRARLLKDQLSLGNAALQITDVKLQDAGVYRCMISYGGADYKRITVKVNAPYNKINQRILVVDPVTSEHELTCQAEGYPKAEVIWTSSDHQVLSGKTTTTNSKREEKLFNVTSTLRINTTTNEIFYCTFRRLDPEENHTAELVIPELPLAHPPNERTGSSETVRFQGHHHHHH

For the compound `CCCC[C@H]1C(=O)N[C@@H](CC(N)=O)C(=O)N2CCC[C@H]2CN[C@@H](CO)C(=O)N[C@@H](CCO)C(=O)N2CCC[C@H]2C(=O)N[C@@H](Cc2c[nH]c3ccccc23)C(=O)N[C@@H](CN)C(=O)N[C@@H](Cc2c[nH]c3ccccc23)C(=O)N(C)[C@@H](C)C(=O)N(C)[C@@H](C)C(=O)N[C@@H](CCCNC(=N)N)C(=O)NC(C(=O)NCC(N)=O)CSCC(=O)N[C@@H](Cc2ccc(O)cc2)C(=O)N1C` (stereo partly drawn) [Example 10196], the IC50 is 1000 to 10000 nM.

Consider `CCCC[C@H]1C(=O)N2C[C@H](O)C[C@@H]2C(=O)N[C@@H](CC(=O)O)C(=O)N[C@@H](C(C)C)C(=O)N(C)[C@@H](Cc2ccccc2)C(=O)N[C@@H](CC(=O)O)C(=O)N2C[C@H](O)C[C@@H]2C(=O)N[C@@H](Cc2c[nH]c3ccccc23)C(=O)N[C@@H](Cc2ccc(O)cc2)C(=O)N[C@@H](CCC(N)=O)C(=O)N[C@H](C(=O)NCC(N)=O)CSCC(=O)N[C@@H](Cc2cc(F)c(F)c(F)c2)C(=O)N(C)[C@@H](Cc2ccccc2)C(=O)N1C` [Example 9351] ({CH2CO}-[Phe(3,4,5-F3)][NMeF][NMeNle][d(cisHyp)]DV[NMeF]D[d(cisHyp)]WYQCG-NH2; thioether N-13), for which the IC50 was in the range of 10 to 99.9 nM.

Consider `CCCC[C@H]1C(=O)N(C)[C@@H](CCCC)C(=O)N[C@@H](CCCN)C(=O)N[C@H](C(=O)NCC(N)=O)CSCC(=O)N[C@@H](Cc2ccc(OC)cc2)C(=O)N(C)[C@@H](C)C(=O)N[C@@H](CC(=O)O)C(=O)N2CCC[C@H]2C(=O)N[C@@H](Cc2cnc[nH]2)C(=O)N[C@@H](CCCCN)C(=O)N2C[C@H](O)C[C@H]2C(=O)N[C@@H](Cc2c[nH]c3ccccc23)C(=O)N[C@@H](CC(=O)O)C(=O)N[C@@H](Cc2c[nH]c3ccccc23)C(=O)N1C` [Example 7106] ({CH2CO}-Y(Me)[NMeA]DPHK[Hyp]WDW[NMeNle][NMeNle][Orn]CG-NH2; thioether N-14), for which the IC50 lay in the range of 1 to 9.9 nM.

Regarding `CCCC[C@H]1C(=O)N(C)[C@@H](CCCC)C(=O)N[C@@H](CC(C)C)C(=O)N[C@H](C(=O)NCC(N)=O)CSCC(=O)N[C@@H](Cc2ccc(O)cc2)C(=O)N2CCCC[C@H]2C(=O)N[C@@H](CC(=O)O)C(=O)N2CCC[C@H]2C(=O)N[C@@H](Cc2cnc[nH]2)C(=O)N[C@@H](CCC(N)=O)C(=O)N2C[C@H](O)C[C@H]2C(=O)N[C@@H](Cc2c[nH]c3ccccc23)C(=O)N[C@@H](CO)C(=O)N[C@@H](Cc2cn(CC(=O)O)c3ccccc23)C(=O)N1C` [Example 1293] ({CH2CO}-Y[Pip]DPHQ[Hyp]WS[Trp(1-CH2COOH)][NMeNle][NMeNle]LCG-NH2; thioether N-14), the IC50 lay in the range of 10 to 99.9 nM.

For the compound `CCCC[C@H]1C(=O)N(C)[C@@H](CCCC)C(=O)N[C@@H](CCC(=O)O)C(=O)N[C@H](C(=O)NCC(N)=O)CSCC(=O)N[C@@H](Cc2ccc(O)cc2)C(=O)N2CCCC[C@H]2C(=O)N[C@@H](CC(=O)O)C(=O)N2CCC[C@H]2C(=O)N[C@@H](Cc2cnc[nH]2)C(=O)N[C@@H](CCC(=O)O)C(=O)N2C[C@H](O)C[C@H]2C(=O)N[C@@H](Cc2c[nH]c3ccccc23)C(=O)N[C@@H](CO)C(=O)N[C@@H](Cc2cn(C)c3ccccc23)C(=O)N1C` [Example 1505] ({CH2CO}-Y[Pip]DPHE[Hyp]WS[Trp(1-Me)][NMeNle][NMeNle]ECG-NH2; thioether N-14), the IC50 lay in the range of 1 to 9.9 nM.

`CCCC[C@H]1C(=O)N(C)[C@@H](CCCC)C(=O)N[C@@H](CC(C)C)C(=O)N[C@H](C(=O)NCC(N)=O)CSCC(=O)N[C@@H](Cc2ccc(O)cc2)C(=O)N2CCCC[C@H]2C(=O)N[C@@H](CC(N)=O)C(=O)N2CCC[C@H]2C(=O)N[C@@H](CN)C(=O)N[C@@H](CC(C)C)C(=O)N2C[C@H](O)C[C@H]2C(=O)N[C@@H](Cc2c[nH]c3ccccc23)C(=O)N[C@@H](CCN)C(=O)N[C@@H](Cc2cn(CC(=O)O)c3ccccc23)C(=O)N1C` [Example 1297] ({CH2CO}-Y[Pip]NP[Dap]L[Hyp]W[Dab][Trp(1-CH2COOH)][NMeNle][NMeNle]LCG-NH2; thioether N-14): the IC50 was 1 to 9.9 nM.

In the case of `CCCC[C@H]1C(=O)N[C@@H](CN)C(=O)N[C@H](C(=O)NCC(N)=O)CSCC(=O)N[C@@H](Cc2ccc(O)cc2)C(=O)N(C)[C@@H](C)C(=O)N[C@@H](CC(N)=O)C(=O)N2CCC[C@H]2C(=O)N[C@@H](Cc2c[nH]cn2)C(=O)N[C@@H](CCC(=O)O)C(=O)N2C[C@H](O)C[C@H]2C(=O)N[C@@H](Cc2c[nH]c3ccccc23)C(=O)N[C@@H](CCN)C(=O)N[C@@H](Cc2c[nH]c3ccccc23)C(=O)N(C)[C@@H](Cc2c[nH]c3ccccc23)C(=O)N1C` [Example 5160] ({CH2CO}-Y[NMeA]NPHE[Hyp]W[Dab]W[NMeW][NMeNle][Dap]CG-NH2; thioether N-14), the IC50 lay within 10 to 99.9 nM.

`CCCC[C@H]1C(=O)N2C[C@H](O)C[C@@H]2C(=O)N[C@@H](CC(=O)O)C(=O)N[C@@H](C(C)C)C(=O)N(C)[C@@H](Cc2ccccc2)C(=O)N[C@@H](CCCN)C(=O)N2CCC[C@@H]2C(=O)N[C@@H](Cc2c[nH]c3ccccc23)C(=O)N[C@@H](Cc2ccc(O)cc2)C(=O)N[C@@H](CCOC)C(=O)N[C@H](C(=O)NCC(N)=O)CSCC(=O)N[C@@H](Cc2cc(F)c(F)c(F)c2)C(=O)N(C)[C@@H](Cc2ccccc2)C(=O)N1C` [Example 10191] ({CH2CO}-[Phe(3,4,5-F3)][NMeF][NMeNle][d(cisHyp)]DV[NMeF][Orn][dP]WY[hSer](Me)CG-NH2; thioether N-13): the IC50 is 1 to 9.9 nM.

As for `CCCC[C@H]1C(=O)N2CCC[C@@H]2C(=O)N[C@@H](CC(=O)O)C(=O)N[C@@H](C(C)C)C(=O)N(C)[C@@H](Cc2ccccc2)C(=O)N[C@@H](CCC(=O)O)C(=O)N2C[C@H](O)C[C@@H]2C(=O)N[C@@H](Cc2c[nH]c3ccccc23)C(=O)N[C@@H](Cc2ccc(O)cc2)C(=O)N[C@@H](CCC(=O)O)C(=O)N[C@H](C(=O)NCC(N)=O)CSCC(=O)N[C@@H](Cc2cc(F)c(F)c(F)c2)C(=O)N(C)[C@@H](Cc2ccc(O)cc2)C(=O)N1C` [Example 10633] ({CH2CO}-[Phe(3,4,5-F3)][NMeY][NMeNle][dP]DV[NMeF]E[d(cisHyp)]WYECG-NH2; thioether N-13), the IC50 is 10 to 99.9 nM.

Regarding `CCCC[C@H]1C(=O)N(C)[C@@H](CCCC)C(=O)N[C@@H](CC(C)C)C(=O)N[C@H](C(=O)NCC(N)=O)CSCC(=O)N[C@@H](Cc2ccc(O)cc2)C(=O)N(C)[C@@H](C)C(=O)N[C@@H](CC(N)=O)C(=O)N2CCC[C@H]2C(=O)N[C@@H](CO)C(=O)N[C@@H](CCC(=O)O)C(=O)N2C[C@H](O)C[C@H]2C(=O)N[C@@H](Cc2c[nH]c3ccccc23)C(=O)N[C@@H](CCN)C(=O)N[C@@H](Cc2cn(CC(=O)O)c3ccccc23)C(=O)N1C` [Example 6266] ({CH2CO}-Y[NMeA]NPSE[Hyp]W[Dab][Trp(1-CH2COOH)][NMeNle][NMeNle]LCG-NH2; thioether N-14), the IC50 was 10 to 99.9 nM.

As for `CCCC[C@H]1C(=O)N2C[C@H](O)C[C@@H]2C(=O)N[C@@H](CC(=O)O)C(=O)N[C@@H](C(C)C)C(=O)N(C)[C@@H](Cc2ccccc2)C(=O)N[C@@H](Cc2ccc(O)cc2)C(=O)N2C[C@H](O)C[C@@H]2C(=O)N[C@@H](Cc2c[nH]c3ccccc23)C(=O)N[C@@H](Cc2ccc(O)cc2)C(=O)N[C@@H](CCN)C(=O)N[C@H](C(=O)NCC(N)=O)CSCC(=O)N[C@@H](Cc2cc(F)c(F)c(F)c2)C(=O)N(C)[C@@H](Cc2ccccc2)C(=O)N1C` [Example 9324] ({CH2CO}-[Phe(3,4,5-F3)][NMeF][NMeNle][d(cisHyp)]DV[NMeF]Y[d(cisHyp)]WY[Dab]CG-NH2; thioether N-13), the IC50 lay within 1 to 9.9 nM.

`CCCC[C@H]1C(=O)N(C)[C@@H](CCCC)C(=O)N[C@@H](CCCNC(=N)N)C(=O)N[C@H](C(=O)NCC(N)=O)CSCC(=O)N[C@@H](Cc2ccc(C)cc2)C(=O)N(C)[C@@H](C)C(=O)N[C@@H](CC(N)=O)C(=O)N2CCC[C@H]2C(=O)N[C@@H](CN)C(=O)N[C@@H](CC(C)C)C(=O)N2C[C@H](O)C[C@H]2C(=O)N[C@@H](Cc2c[nH]c3ccccc23)C(=O)N[C@@H](CO)C(=O)N[C@@H](Cc2c[nH]c3ccccc23)C(=O)N1C` [Example 7070] ({CH2CO}-[Phe(4-Me)][NMeA]NP[Dap]L[Hyp]WSW[NMeNle][NMeNle]RCG-NH2; thioether N-14): the IC50 lay in the range of 1 to 9.9 nM.

Consider `CCCC[C@H]1C(=O)N[C@@H](CC(N)=O)C(=O)N2CCC[C@H]2C(=O)N[C@@H](CO)C(=O)N[C@@H](CCO)C(=O)N2CCC[C@H]2C(=O)N[C@@H](Cc2c[nH]c3ccccc23)C(=O)N[C@@H](CCCN)C(=O)N[C@@H](Cc2c[nH]c3ccccc23)C(=O)N(C)[C@@H](C)C(=O)N(C)[C@@H](C)C(=O)N[C@@H](CCCNC(=N)N)C(=O)NC(C(=O)NCC(N)=O)CSCC(=O)N[C@@H](Cc2ccc(O)cc2)C(=O)N1C` (stereo partly drawn) [Example 10198] ({CH2CO}-Y[NMeNle]NPS[hSer]PW[Orn]W[NMeA][NMeA]R[ξC]G-NH2; thioether N-14), for which the IC50 lay in the range of 1000 to 10000 nM.

Consider `CCCC[C@H]1C(=O)N2CCC[C@@H]2C(=O)N[C@@H](CC(=O)O)C(=O)N[C@@H](C(C)C)C(=O)N(C)[C@@H](Cc2ccccc2)C(=O)N[C@@H](CCC(=O)O)C(=O)N2CCOC[C@@H]2C(=O)N[C@@H](Cc2c[nH]c3ccccc23)C(=O)N[C@@H](Cc2ccc(O)cc2)C(=O)N[C@@H](CC(N)=O)C(=O)N[C@H](C(=O)NCC(N)=O)CSCC(=O)N[C@@H](Cc2cc(F)c(F)c(F)c2)C(=O)N(C)[C@@H](Cc2ccc(F)cc2)C(=O)N1C` [Example 10597] ({CH2CO}-[Phe(3,4,5-F3)][NMePhe(4-F)][NMeNle][dP]DV[NMeF]E[X1]WYNCG-NH2; thioether N-13), for which the IC50 is 1 to 9.9 nM.

Consider `CCCC[C@H]1C(=O)N[C@@H](CC(N)=O)C(=O)N2CCC[C@H]2C(=O)N[C@@H](CO)C(=O)N[C@@H](CCO)C(=O)N2CCC[C@H]2C(=O)N[C@@H](Cc2c[nH]c3ccccc23)C(=O)N[C@@H](CCO)C(=O)N[C@@H](Cc2c[nH]c3ccccc23)C(=O)N(C)[C@@H](C)C(=O)N(C)[C@@H](C)C(=O)N[C@@H](CCC(=O)O)C(=O)NC(C(=O)NCC(N)=O)CSCC(=O)N[C@@H](Cc2ccc(O)cc2)C(=O)N1C` (stereo partly drawn) [Example 10215] ({CH2CO}-Y[NMeNle]NPS[hSer]PW[hSer]W[NMeA][NMeA]E[ξC]G-NH2; thioether N-14), for which the IC50 was 1000 to 10000 nM.

The values are drawn from patent US10538555B2, “Macrocyclic inhibitors of the PD-1/PD-L1 and CD80(B7-1)/PD-L1 protein/protein interactions” (BRISTOL-MYERS SQUIBB COMPANY, priority 2014, dated 2020).
